Laboratory results: patent US4419123A, “Herbicidal 4-trifluoromethyl-3'-carbon-substituted-4'-substituted diphenyl ethers” (Rohm and Haas Company, priority 1981, dated 1983)

Key:
[1] = Postemergence herbicidal activity (% control) against dicot weeds; settings: post-emergence, 336 h; for activity at 11208.5 g/ha: read-out: Herbicidal activity (% control), postemergence, dicots, 10 lb./A., average, about two weeks after application
[2] = Preemergence herbicidal activity (% control) against dicot weeds; settings: pre-emergence, 336 h; for activity at 11208.5 g/ha: read-out: Herbicidal activity (% control), preemergence, dicots, 10 lb./A., average, about two weeks after application
[3] = Preemergence herbicidal activity (% control) against monocot weeds; assay type: in vivo; settings: pre-emergence, 336 h, average, about two weeks after application, read-out: Herbicidal activity (% control), preemergence, monocots; for activity at 2241.7 g/ha: 2 lb./A.; for activity at 4483.4 g/ha: 4 lb./A.; for activity at 11208.5 g/ha: 10 lb./A.
From the text: (§1) barnyardgrass (Echinochloa crusgalli) crabgrass (Digitaria spp.) nutsedge (Cyperus esculentus)
(§2) At 2 and 4 pounds per acre:
(§3) **Bermudagrass (Cynodon dactylon)
(§4) *downy brome (Bromus tectorum) foxtail (Setaria faberii)
(§5) Johnsongrass (Sorghum halepense) […]
(§6) quackgrass (Agropyron repens)
(§7) *ryegrass (Lolium perenne)
(§8) *wild oats (Avena factua)
(§9) *yellow millet (Panicum miliaceum)
(§10) The following test procedure is employed.

[4] = Postemergence herbicidal activity (% control) against monocot weeds; assay type: in vivo; settings: post-emergence, 336 h, average, about two weeks after application, read-out: Herbicidal activity (% control), postemergence, monocots; for activity at 2241.7 g/ha: 2 lb./A.; for activity at 4483.4 g/ha: 4 lb./A.; for activity at 11208.5 g/ha: 10 lb./A.
From the text: as §1, §2, §3, §4, §5, §6, §7, §8, §9, §10

[5] = read-out: Herbicidal activity (% control), postemergence, dicots, 4 lb./A., average, about two weeks after application
[6] = read-out: Herbicidal activity (% control), preemergence, dicots, 4 lb./A., average, about two weeks after application
[7] = read-out: Herbicidal activity (% control), postemergence, dicots, 2 lb./A., average, about two weeks after application
[8] = read-out: Herbicidal activity (% control), preemergence, dicots, 2 lb./A., average, about two weeks after application
[9] = read-out: Herbicidal activity (% control), postemergence, dicots
[10] = read-out: Herbicidal activity (% control), preemergence, dicots

SMILES | activity at 4483.4 g/ha [1, 5] [%] | activity at 4483.4 g/ha [2, 6] [%] | activity at 2241.7 g/ha [3] [%] | activity at 4483.4 g/ha [3] [%] | activity at 2241.7 g/ha [4] [%] | activity at 4483.4 g/ha [4] [%] | activity at 2241.7 g/ha [1, 7] [%] | activity at 2241.7 g/ha [2, 8] [%] | activity at 11208.5 g/ha [1] [%] | activity at 11208.5 g/ha [2] [%] | activity at 11208.5 g/ha [3] [%] | activity at 11208.5 g/ha [4] [%] | activity at 2241.7 g/ha [1, 9] [%] | activity at 4483.4 g/ha [1, 9] [%] | activity at 2241.7 g/ha [2, 10] [%] | activity at 4483.4 g/ha [2, 10] [%]
CC(=O)C(C)Oc1cc(Oc2ccc(C(F)(F)F)cc2Cl)ccc1[N+](=O)[O-] (stereo not shown) [Example 32] | 100 | 100 | 81 | 86 | 100 | 86 | – | – | – | – | – | – | – | – | – | –
CCSC(=O)Nc1cc(Oc2ccc(C(F)(F)F)cc2Cl)ccc1[N+](=O)[O-] [Example 45] | 88 | 58 | 68 | 13 | 53 | 17 | 78 | 77 | – | – | – | – | – | – | – | –
N#Cc1cc(Oc2ccc(C(F)(F)F)cc2Cl)ccc1[N+](=O)[O-] [Example 47, 2-Chloro-α,α,α-trifluoro-p-tolyl-3-cyano-4-nitrophenyle ther] | 72 | 40 | 80 | 61 | 24 | 11 | 84 | – | – | – | – | – | – | – | – | –
O=[N+]([O-])c1ccc(Oc2ccc(C(F)(F)F)cc2Cl)cc1NCCO [Example 22] | 99 | 98 | 63 | 72 | 70 | 60 | 100 | 77 | – | – | – | – | – | – | – | –
O=[N+]([O-])c1ccc(Oc2ccc(C(F)(F)F)cc2Cl)cc1OCCO [Example 15, 2-chloro-α,α,α-trifluoro-p-tolyl-3-(2-hydroxyethoxy)-4-nitrophenyl ether] | 99 | 100 | 68 | 99 | 76 | 79 | 94 | 90 | – | – | – | – | – | – | – | –
CC#CCCOc1cc(Oc2ccc(C(F)(F)F)cc2Cl)ccc1[N+](=O)[O-] [Example 14] | 94 | 78 | 30 | 64 | 91 | 61 | 100 | 22 | – | – | – | – | – | – | – | –
CC(=O)CCOc1cc(Oc2ccc(C(F)(F)F)cc2Cl)ccc1[N+](=O)[O-] [Example 31] | 100 | 99 | 68 | 74 | 68 | 61 | 100 | 69 | – | – | – | – | – | – | – | –
CCCOc1cc(Oc2ccc(C(F)(F)F)cc2C#N)ccc1[N+](=O)[O-] [Example 8] | 80 | 57 | 52 | 61 | 35 | 48 | 66 | 46 | 100 | 82 | 81 | 85 | – | – | – | –
COc1cc(Oc2ccc(C(F)(F)F)cc2Cl)ccc1[N+](=O)[O-] [Example 2] | 100 | 80 | – | 97 | – | 99 | – | – | – | 100 | 97 | 100 | – | – | – | –
CC(Oc1cc(Oc2ccc(C(F)(F)F)cc2Cl)ccc1[N+](=O)[O-])C(=O)O (stereo not drawn) [Example 25, 2-Chloro-α,α,α-trifluoro-p-tolyl-3-(1-carboxyethoxy)-4-nitrophenyl ether] | 100 | 88 | 40 | 87 | 88 | 97 | 100 | 93 | – | – | – | – | – | – | – | –
O=[N+]([O-])c1ccc(Oc2ccc(C(F)(F)F)cc2Cl)cc1OCC(O)CO (stereo not drawn) [Example 39, 2-chloro-α,α,α-trifluoro-p-tolyl-3-(2,3-dihydroxypropoxy)-4-nitrophenyl ether] | 98 | 99 | 77 | 65 | 61 | 64 | 100 | 80 | – | – | – | – | – | – | – | –
CN(C)CCOc1cc(Oc2ccc(C(F)(F)F)cc2Cl)ccc1[N+](=O)[O-] [Example 17, 2-chloro-α,α,α-trifluoro-p-tolyl-3-(2-dimethylaminoethoxy)-4-nitrophenyl ether] | 89 | 84 | 20 | 51 | 39 | 45 | 98 | 31 | – | – | – | – | – | – | – | –
C#CCOc1cc(Oc2ccc(C(F)(F)F)cc2Cl)ccc1[N+](=O)[O-] [Example 13] | 98 | 90 | 78 | 76 | 100 | 77 | – | 72 | – | – | – | – | – | – | – | –
Nc1cc(Oc2ccc(C(F)(F)F)cc2Cl)ccc1[N+](=O)[O-] [Example 27] | 100 | 98 | 74 | 76 | 99 | 82 | 100 | 90 | – | – | – | – | – | – | – | –
CC(Oc1cc(Oc2ccc(C(F)(F)F)cc2Cl)ccc1[N+](=O)[O-])C(N)=O (stereo not drawn) [Example 51, 2-chloro-α,α,α-trifluoro-p-tolyl-3-(1-carbamoylethoxy)-4-nitrophenyl ether] | 100 | 100 | 96 | 79 | 86 | 75 | 98 | 100 | – | – | – | – | – | – | – | –
CCCCOc1cc(Oc2ccc(C(F)(F)F)cc2Cl)ccc1[N+](=O)[O-] [Example 6] | 94 | 55 | – | 77 | – | 91 | – | – | 100 | 70 | 65 | 97 | – | – | – | –
CS(=O)(=O)CCOc1cc(Oc2ccc(C(F)(F)F)cc2Cl)ccc1[N+](=O)[O-] [Example 42] | 98 | 80 | 83 | 62 | 63 | 38 | 88 | 60 | – | – | – | – | – | – | – | –
O=[N+]([O-])c1ccc(Oc2ccc(C(F)(F)F)cc2Cl)cc1O [Example 10, 2-Chloro-α,α,α-trifluoro-p-tolyl-3-hydroxy-4-nitrophenylether] | 98 | 100 | 66 | 70 | 17 | 67 | 85 | 70 | – | – | – | – | – | – | – | –
CCCN(CCC)c1cc(Oc2ccc(C(F)(F)F)cc2Cl)ccc1[N+](=O)[O-] [Example 41] | 95 | 96 | 84 | 60 | 56 | 71 | 94 | 62 | – | – | – | – | – | – | – | –
O=[N+]([O-])c1ccc(Oc2ccc(C(F)(F)F)cc2Cl)cc1OCC1CO1 (stereo not shown) [Example 38] | 98 | 86 | 62 | 47 | 51 | 43 | 58 | 68 | – | – | – | – | – | – | – | –
CNC(=O)Oc1cc(Oc2ccc(C(F)(F)F)cc2Cl)ccc1[N+](=O)[O-] [Example 33] | – | – | 79 | 53 | 65 | 32 | – | – | – | – | – | – | 100 | 98 | 74 | 99
CCOc1cc(Oc2ccc(C(F)(F)F)cc2)ccc1[N+](=O)[O-] [Example 1] | 58 | 45 | – | 76 | – | 57 | – | – | 100 | 35 | 42 | 82 | – | – | – | –
